Where two headings read alike, the source gives them in different places.
What was measured:
[1] = tested on: cell bound form of LFA-1 (CD18, CD11a) with ICAM-1, SKW3 cells; assay: Inhibition of SKW3 cell binding to ICAM-1 (PMA-stimulated); assay type: cell-based, human; conditions: read-out: Assay to Detect SKW3 Cells Binding to ICAM IC50
Excerpt: (§1) Assay to Determine Inhibition of SKW3 cell binding to ICAM-1 vs. Binding to Fibronectin
(§2) This assay is used to test the selective ability of a test compound to antagonize the interaction of a cell bound form of LFA-1 with ICAM-1. The assay uses a human T cell line, SKW3 cells which express CD18, CD11a and other integrins not related to CD18, CD11a and which can be “activated” by phorbol esters. Phorbol esters enhance the affinity of CD18, CD11a for ICAM-1.
(§3) This same lymphocyte line, SKW3, also adheres to fibronectin in the presence of phorbol esters. This adhesion is mediated by membrane proteins independent of the LFA-1/ICAM-1 interaction. The SKW3 cells express another integrin, VLA4, which is the receptor for fibronectin. Therefore, as a preliminary indication of the selectivity of a test compounds to interfere with Leukointegrin/CAM interactions but not other integrin-ligand binding events, a compound can be tested for its ability to antagonize cell bound fibronectin receptor in its interaction with purified fibronectin. Compounds that inhibit this fibronectin adhesion are not specific antagonists of the CD18, CD11a/ICAM-1 binding.
(§4) Description of Assay Protocol:
(§5) Ninety-six well plates are coated with either sICAM-1(40 μg/mL) or fibronectin (100 μg/mL) in Diluting buffer for 1 h at room temperature. Added to the wells are 100 μL of the appropriately diluted test compound or 100 μL of RPMI with 15% fetal bovine serum as a control. SKW3 cells, which express CD18, CD11a and VLA4 (Dustin, M.; et al., J. Exp. Med. 1987, 165, 672-692) are washed and suspended to a concentration of 10^6 cells/mL in RPMI with 15% fetal bovine serum. Immediately before adding the cells to the wells, cells are stimulated with the phorbol ester 12-myristate 13-acetate (PMA) for a final concentration of […]. 100 μL of cells are then added to the wells resulting in a final concentration of […]. The plates are incubated for 2 h at 37° C. Unbound or loosely bound cells are gently washed away with RPMI.
(§6) Data are reported as the concentration or concentration range (in μM) at which 50% of binding is inhibited.

[2] = target: T1, interaction of ICAM-1 with the Leukointegrin CD18/CD11a (LFA-1) (Homo sapiens, UniProt P05107+P20701); assay: Assay to determine inhibition of LFA-1 binding to ICAM-1 (immunopurified LFA-1 on plate-bound sICAM-1, ELISA readout)
T1 construct: endogenous in cells; sICAM-1: made in house, secreted from transfected CHO DUX cells

[3] = tested on: LFA-1 dependent aggregation of JY cells; assay: JY cell homotypic aggregation assay (PMA-stimulated); assay type: cell-based, human; conditions: Homo sapiens
Excerpt: This aggregation can be enhanced by the addition of phorbol esters. […] Thus, the extent of LFA-1-dependent binding may be determined by assessing the extent of spontaneous or phorbol ester-dependent aggregate formation.
An agent which interferes with LFA-1 -dependent aggregation can be identified through the use of an assay capable of determining whether the agent interferes with either spontaneous, or phorbol ester-dependent aggregation of Epstein-Barr virus transformed cells. It is preferable to employ cells of the JY cell line (Terhost, L; et aL, Proc. Natl. Acad. Sci. USA, 1976, 73, 910) for the homotypic aggregation assay. This assay, capable of measuring LFA-1 dependent aggregation, may be employed to identify agents which act as antagonists to the LFA-1 dependent aggregation. Such agents may act by impairing the ability of either LFA-1 or ICAM-1 to mediate aggregation. Thus, agents may be examined to directly determine if they are antagonists of LFA-1 aggregation.
as §4
JY cells are cultured in RPMI 1640 culture medium supplemented with 10% fetal calf serum and 50 μg/mL gentamycin. The cells are cultured at 37° C. in an atmosphere of 5% CO2 at a relative humidity of 95%. JY cells used in this assay are washed two times with RPMI 1640 medium containing 5 mM HEPES buffer and resuspended to a concentration of 2·10^6 cells/mL. Added to flat-bottomed, 96-well microtiter plates are 50 μL of test compound diluted in complete medium, 50 μL of complete medium with or without purified monoclonal antibodies (negative and positive controls for inhibition, respectively), 50 μL of complete medium containing 200 ng/mL of the phorbol ester phorbol myristate acetate (PMA) and 100 μL of cells at a concentration of 2·10^6 cells/mL in complete medium. This yields a final concentration of […] PMA and 2·10^5 cells/well. Cells are allowed to settle spontaneously, and the degree of aggregation is scored at various time points. […] This procedure has been described by Rothlein, R. R.; et al., J. Exp. Med. 1986, 163, 1132-1149. This paper also reported that antibody to LFA-1 is capable of inhibiting the formation of aggregates.
as §6

[4] = tested on: cell bound fibronectin receptor (VLA4) with fibronectin, SKW3 cells; assay: Inhibition of SKW3 cell binding to fibronectin (selectivity counter-assay); assay type: cell-based, human; conditions: for IC50: Homo sapiens, SKW3, values marked c: no inhibition observed up to highest dose, read-out: Assay to Detect SKW3 Cells Binding to FIBRONECTIN IC50
Excerpt: as §1, §2, §3, §4, §5, §6

[5] = No inh = no inhibition observed up to highest dose, exact quantification not always possible due to intrinsic toxicity
[6] = Homo sapiens, SKW3, values marked c: no inhibition observed up to highest dose
[7] = values marked e approximated from incomplete dose-response curve
[8] = values marked c: no inhibition observed up to highest dose

T1 sequence (P20701 26-1170): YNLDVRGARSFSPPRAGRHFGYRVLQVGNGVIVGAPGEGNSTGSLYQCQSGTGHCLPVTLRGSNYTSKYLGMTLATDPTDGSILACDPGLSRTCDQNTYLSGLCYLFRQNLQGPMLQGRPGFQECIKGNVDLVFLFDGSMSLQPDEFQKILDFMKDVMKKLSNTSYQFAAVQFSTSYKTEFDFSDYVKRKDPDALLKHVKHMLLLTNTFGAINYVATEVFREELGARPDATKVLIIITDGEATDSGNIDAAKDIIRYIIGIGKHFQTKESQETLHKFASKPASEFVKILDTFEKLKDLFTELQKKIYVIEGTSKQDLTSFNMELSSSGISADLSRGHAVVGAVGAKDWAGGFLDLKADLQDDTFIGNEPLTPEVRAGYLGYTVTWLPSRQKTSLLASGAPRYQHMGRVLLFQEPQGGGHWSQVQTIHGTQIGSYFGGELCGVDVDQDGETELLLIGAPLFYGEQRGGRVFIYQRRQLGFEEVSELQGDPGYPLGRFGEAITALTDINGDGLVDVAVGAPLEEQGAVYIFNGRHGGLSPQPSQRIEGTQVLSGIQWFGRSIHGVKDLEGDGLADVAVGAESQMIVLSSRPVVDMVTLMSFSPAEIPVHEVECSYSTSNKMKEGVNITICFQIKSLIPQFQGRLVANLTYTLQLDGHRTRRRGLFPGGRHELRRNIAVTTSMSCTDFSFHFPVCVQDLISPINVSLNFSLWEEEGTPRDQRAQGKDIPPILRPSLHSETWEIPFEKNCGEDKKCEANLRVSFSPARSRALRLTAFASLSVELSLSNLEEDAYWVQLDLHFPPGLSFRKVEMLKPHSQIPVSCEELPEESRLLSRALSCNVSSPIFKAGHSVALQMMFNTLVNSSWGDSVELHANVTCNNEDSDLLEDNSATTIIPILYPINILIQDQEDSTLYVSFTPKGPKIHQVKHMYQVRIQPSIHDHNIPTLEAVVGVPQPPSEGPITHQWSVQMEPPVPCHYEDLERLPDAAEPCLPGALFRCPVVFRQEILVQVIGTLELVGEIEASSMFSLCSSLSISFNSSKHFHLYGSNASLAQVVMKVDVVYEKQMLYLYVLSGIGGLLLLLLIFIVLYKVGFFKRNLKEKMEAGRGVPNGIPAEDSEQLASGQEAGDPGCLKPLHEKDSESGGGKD
T1 sequence (P05107 23-769): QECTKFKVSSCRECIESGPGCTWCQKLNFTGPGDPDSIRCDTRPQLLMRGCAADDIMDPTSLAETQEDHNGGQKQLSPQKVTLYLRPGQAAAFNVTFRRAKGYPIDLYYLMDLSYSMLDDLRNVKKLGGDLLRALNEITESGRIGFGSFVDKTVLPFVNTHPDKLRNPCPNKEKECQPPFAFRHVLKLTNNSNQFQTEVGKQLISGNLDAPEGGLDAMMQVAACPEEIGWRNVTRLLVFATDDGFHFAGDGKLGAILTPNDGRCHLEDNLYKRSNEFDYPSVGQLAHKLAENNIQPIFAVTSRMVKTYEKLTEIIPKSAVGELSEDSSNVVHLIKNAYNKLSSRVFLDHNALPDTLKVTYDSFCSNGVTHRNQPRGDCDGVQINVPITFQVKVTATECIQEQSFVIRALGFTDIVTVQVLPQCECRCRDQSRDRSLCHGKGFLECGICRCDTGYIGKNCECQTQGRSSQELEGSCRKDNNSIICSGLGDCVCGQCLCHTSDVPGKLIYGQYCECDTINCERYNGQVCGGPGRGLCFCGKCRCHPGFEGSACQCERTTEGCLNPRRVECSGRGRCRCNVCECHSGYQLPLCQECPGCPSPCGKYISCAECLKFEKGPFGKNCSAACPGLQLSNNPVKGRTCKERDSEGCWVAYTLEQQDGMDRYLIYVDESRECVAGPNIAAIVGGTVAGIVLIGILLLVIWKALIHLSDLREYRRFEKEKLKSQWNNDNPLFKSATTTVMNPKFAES

| SMILES | IC50 ([1]; Homo sapiens, SKW3) | Kd [2] | IC50 [3] | Assay to Detect SKW3 Cells Binding to FIBRONECTIN IC50 [4, 5] | Cellular Toxicity Assay MTT LD50 (SKW3 cells) | IC50 [1, 6] | Kd [2, 7] | Assay to Detect SKW3 Cells Binding to FIBRONECTIN IC50 [4, 8] | IC50 [1, 8] | IC50 [4] |
| --- | --- | --- | --- | --- | --- | --- | --- | --- | --- | --- |
| CC(=O)OCCN1C(=O)N(c2cc(Cl)cc(Cl)c2)C(=O)[C@@]1(C)Cc1ccc(Br)cc1 [Example 260] | 19 to 38 µM | 70 nM | 1100 nM | No inh^c | 200 to 400 µM |  |  |  |  |  |
| CCCC1(Cc2ccc(Br)cc2)C(=O)N(c2cc(Cl)cc(Cl)c2)C(=O)N1C (stereo not drawn) [Example 173] |  |  | 2200 nM |  | 200 to 400 µM | 4.8 µM | 170 nM | No inh^c |  |  |
| CC1(Cc2c[nH]c3ccccc23)NC(=O)N(c2cc(Cl)cc(Cl)c2)C1=O (stereo not drawn) [Example 23] |  |  | 13000 nM |  | 50 to 100 µM |  | 770 nM |  | 25 to 50 µM | > 100 µM |
| CN1C(=O)N(c2cc(Cl)cc(Cl)c2)C(=O)[C@@H]1Cc1ccccc1 [Example 87] |  |  | 50000 nM |  | >500 µM | 50 to 100 µM | 2000 nM |  |  | > 100 µM |
| CN1C(=O)N(c2cc(Cl)cc(Cl)c2)C(=O)C1(C)Cc1ccc(C(F)(F)F)cc1 (stereo not drawn) [Example 171] |  |  | 200 nM |  | 100 to 200 µM | 102 µM | 180 nM | No inh^c |  |  |
| C[C@@]1(Cc2ccc(Br)cc2)C(=O)N(c2cc(Cl)cc(Cl)c2)C(=O)N1CCCNC(=N)N [Example 262] | 1 to 2 µM | 80 nM | 400 nM | No inh^c | 25 to 75 µM |  |  |  |  |  |
| CN1C(=O)N(c2cc(Cl)cc(Cl)c2)C(=O)C1(C)Cc1ccc(Br)cc1O (stereo not drawn) [Example 248] | 9 to 18 µM | 370 nM | 700 nM | No inh^c | 50 to 100 µM |  |  |  |  |  |
| C[C@@]1(Cc2ccc(Br)cc2)C(=O)N(c2cc(Cl)cc(Cl)c2)C(=O)N1C1CCNCC1 [Example 224] | 5 to 10 µM | 280 nM | 3100 nM | No inh^c | <25 µM |  |  |  |  |  |
| C[C@@]1(Cc2ccc(Br)cc2)C(=O)N(c2cc(Cl)cc(Cl)c2)C(=O)N1CCCS(=O)(=O)O [Example 249] | < 1 µM | 160 nM | 400 nM | No inh^c | 200 to 400 µM |  |  |  |  |  |
| Cc1ccc(C[C@@]2(C)NC(=O)N(c3cc(Cl)cc(Cl)c3)C2=O)cc1 [Example 119] |  |  | 50 nM |  | >400 µM | < 3 µM |  | No inh^c |  |  |
| [2H]C([2H])([2H])N1C(=O)N(c2cc(Cl)cc(Cl)c2)C(=O)[C@@]1(C)Cc1ccc(Br)cc1 [Example 109] |  |  | 400 nM |  | 100 to 200 µM | 3 to 6 µM |  | No inh^c |  |  |
| C[C@@]1(Cc2ccc(Br)cc2)C(=O)N(c2cc(Cl)cc(Cl)c2)C(=O)N1C(=O)C1CCCN1 (stereo partly drawn) [Example 234] | 5 to 10 µM |  | 1600 nM | No inh^c | 100 to 200 µM |  |  |  |  |  |

Source: patent USRE38132E1, “Phenylpyrrolidines, phenylimidazolidines,3-phenyl-1,3-oxizolidines and 3-phenyl-1,3-thiazolidines and their use in the treatment of inflammatory disease” (Boehringer Ingelheim Pharmaceuticals, Inc., priority 1997, dated 2003)
